According to PMC4780411 (Journal of chemical information and modeling, 2015):

Columns and labels:
human ERα = target: T1, human ERα (Homo sapiens, UniProt P03372); test: competitive radiometric binding assay with [3H]estradiol, ERα
T1 sequence (P03372 1-595): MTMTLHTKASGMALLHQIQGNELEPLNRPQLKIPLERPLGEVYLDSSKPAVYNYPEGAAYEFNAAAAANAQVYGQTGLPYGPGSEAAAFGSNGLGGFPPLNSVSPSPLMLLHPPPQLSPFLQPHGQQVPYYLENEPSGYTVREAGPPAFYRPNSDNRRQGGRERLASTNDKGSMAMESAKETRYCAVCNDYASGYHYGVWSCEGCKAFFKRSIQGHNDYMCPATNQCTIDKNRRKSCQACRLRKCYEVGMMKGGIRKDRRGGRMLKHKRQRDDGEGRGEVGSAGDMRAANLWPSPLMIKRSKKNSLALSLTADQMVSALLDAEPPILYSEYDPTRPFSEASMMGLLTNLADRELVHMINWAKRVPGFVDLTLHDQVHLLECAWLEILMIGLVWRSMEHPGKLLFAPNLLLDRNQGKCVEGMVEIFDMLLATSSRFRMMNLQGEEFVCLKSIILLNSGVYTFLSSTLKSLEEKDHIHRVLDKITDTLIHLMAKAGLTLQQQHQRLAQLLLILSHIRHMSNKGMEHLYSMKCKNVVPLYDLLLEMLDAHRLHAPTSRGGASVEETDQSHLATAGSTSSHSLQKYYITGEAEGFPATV

human ERβ = human ERβ (Homo sapiens, UniProt Q92731); test: competitive radiometric binding assay with [3H]estradiol, ERβ
human ERβ, sequence (Q92731 whole entry): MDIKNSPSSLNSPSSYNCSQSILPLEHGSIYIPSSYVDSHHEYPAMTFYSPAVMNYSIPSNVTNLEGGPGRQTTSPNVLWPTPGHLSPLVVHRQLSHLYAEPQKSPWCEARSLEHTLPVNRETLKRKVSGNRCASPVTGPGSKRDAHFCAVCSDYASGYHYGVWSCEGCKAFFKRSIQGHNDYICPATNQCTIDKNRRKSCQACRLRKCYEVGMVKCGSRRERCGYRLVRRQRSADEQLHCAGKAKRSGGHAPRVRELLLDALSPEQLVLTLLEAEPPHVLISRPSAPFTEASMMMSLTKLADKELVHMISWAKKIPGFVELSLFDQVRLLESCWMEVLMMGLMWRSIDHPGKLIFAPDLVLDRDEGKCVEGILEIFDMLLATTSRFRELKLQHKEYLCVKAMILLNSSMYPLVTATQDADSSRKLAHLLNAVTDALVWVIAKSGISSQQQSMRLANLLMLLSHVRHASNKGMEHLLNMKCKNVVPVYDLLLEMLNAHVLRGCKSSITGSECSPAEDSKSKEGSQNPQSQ

- Ki (human ERα): 2560 ± 500 nM
- Ki (human ERβ): 3100 ± 900 nM
SMILES: O=C1C[C@@H](c2ccc(O)cc2)Oc2cc(O)cc(O)c21 [NCI-34875, Naringenin]
